Molecular target: EGFR WT (Homo sapiens (Human), UniProt P00533)
Test: ErbB enzyme assay (CisBio HTRF-KinEASE-TK), EGFR WT
Type: biochemical
Settings: ATP at Km (25 μM), 1 h incubation
Experimental: In vitro enzyme assays based on CisBio HTRF-KinEASE-TK technology were used to determine compound potencies. […]. Compounds were prepared as a three-fold serial dilution in DMSO and added to the assay to give the appropriate final concentration. After a 1 h incubation at ambient temperature, the reaction was quenched by adding 10 μL of 62.5 nM Sa-XL665 and 0.25×TK-Ab-Cryptate in HTRF detection buffer (all from CisBio, part of cat #62TKOPEC). After another 1 h incubation at ambient temperature, the extent of substrate phosphorylation was determined using a PerkinElmer EnVision multimode plate reader via time-resolved fluorescence dual wavelength detection. The percent of control (POC) was calculated using the ratio of emission at […] to the emission at 620 nm. One hundred POC was determined using DMSO only controls (no test compounds present) and zero POC was determined using pre-quenched controls reactions. A 4-parameter logistic equation was fit to the POC values as a function of the test compound concentration and the IC50 value was determined as the point where the curve crossed 50 POC.

Sequence of EGFR WT (P00533 25-1210): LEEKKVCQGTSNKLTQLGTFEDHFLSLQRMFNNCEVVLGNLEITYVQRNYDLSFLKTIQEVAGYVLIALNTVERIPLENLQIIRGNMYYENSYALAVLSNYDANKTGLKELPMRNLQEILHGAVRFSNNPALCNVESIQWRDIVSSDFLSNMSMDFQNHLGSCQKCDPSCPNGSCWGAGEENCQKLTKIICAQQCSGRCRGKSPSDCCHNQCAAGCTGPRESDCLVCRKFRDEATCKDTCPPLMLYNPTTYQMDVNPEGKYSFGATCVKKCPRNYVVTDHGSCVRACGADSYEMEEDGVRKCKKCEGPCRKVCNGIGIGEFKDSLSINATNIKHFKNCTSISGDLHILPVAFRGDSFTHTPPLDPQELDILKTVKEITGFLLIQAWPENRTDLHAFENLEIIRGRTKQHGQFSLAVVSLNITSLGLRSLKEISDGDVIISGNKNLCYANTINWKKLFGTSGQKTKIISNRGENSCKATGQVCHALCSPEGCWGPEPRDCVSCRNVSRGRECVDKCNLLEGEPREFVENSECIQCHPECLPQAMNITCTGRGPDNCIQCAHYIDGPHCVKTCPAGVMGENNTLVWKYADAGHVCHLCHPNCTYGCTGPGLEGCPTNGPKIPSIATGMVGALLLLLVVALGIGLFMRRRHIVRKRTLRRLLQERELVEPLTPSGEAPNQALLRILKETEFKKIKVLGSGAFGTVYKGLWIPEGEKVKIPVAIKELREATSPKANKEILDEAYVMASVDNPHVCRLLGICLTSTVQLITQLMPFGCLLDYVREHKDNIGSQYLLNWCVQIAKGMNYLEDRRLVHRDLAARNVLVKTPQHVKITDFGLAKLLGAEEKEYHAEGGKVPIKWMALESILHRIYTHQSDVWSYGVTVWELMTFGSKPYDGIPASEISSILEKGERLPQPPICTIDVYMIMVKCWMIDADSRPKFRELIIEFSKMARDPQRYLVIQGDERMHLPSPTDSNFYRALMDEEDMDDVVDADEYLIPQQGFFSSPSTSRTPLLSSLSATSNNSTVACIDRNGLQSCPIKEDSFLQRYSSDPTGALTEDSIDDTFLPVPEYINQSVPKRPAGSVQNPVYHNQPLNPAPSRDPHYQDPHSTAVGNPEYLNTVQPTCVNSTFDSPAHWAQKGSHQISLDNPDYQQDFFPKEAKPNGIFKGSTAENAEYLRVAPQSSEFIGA

| SMILES | IC50 [µM] |
| --- | --- |
| C=CC(=O)N1CCN(c2ncc3ncnc(Nc4ccc(Oc5ccc6c(c5)nnn6C)c(C)c4)c3n2)C[C@H]1CF (single isomer, unassigned) [Compound 198] | 0.1 to 0.5 |
| C=CC(=O)N1CCN(c2ncc3ncnc(Nc4ccc(Oc5ccc6c(c5)nnn6C)c(C)c4)c3n2)C[C@@H]1CF (single isomer, unassigned) [Compound 199] | < 0.05 |
| C=CC(=O)N[C@@H]1C[C@@H](C)CN(c2ncc3ncnc(Nc4ccc(Oc5ccc6c(c5)nnn6C)c(C)c4F)c3n2)C1 (single isomer, unassigned) [Compound 201] | ≥ 1 |
| C=CC(=O)N[C@H]1C[C@H](C)CN(c2ncc3ncnc(Nc4ccc(Oc5ccc6c(c5)nnn6C)c(C)c4F)c3n2)C1 (single isomer, unassigned) [Compound 202] | 0.5 to 1 |
| C=CC(=O)N[C@@H]1C[C@H](C)CN(c2ncc3ncnc(Nc4ccc(Oc5ccc6c(c5)nnn6C)c(C)c4F)c3n2)C1 (single isomer, unassigned) [Compound 203] | ≥ 1 |
| C=CC(=O)N[C@H]1C[C@@H](C)CN(c2ncc3ncnc(Nc4ccc(Oc5ccc6c(c5)nnn6C)c(C)c4F)c3n2)C1 (single isomer, unassigned) [Compound 204] | 0.05 to 0.1 |
| C=C(F)C(=O)N1CCN(c2ncc3ncnc(Nc4ccc(Oc5ccc6c(c5)nnn6C)c(C)c4)c3n2)C[C@@H]1CF (single isomer, unassigned) [Compound 218] | ≥ 1 |
| C=C(F)C(=O)N1CCN(c2ncc3ncnc(Nc4ccc(Oc5ccc6c(c5)nnn6C)c(C)c4)c3n2)C[C@H]1CF (single isomer, unassigned) [Compound 219] | ≥ 1 |
| C=CC(=O)N[C@@H]1C[C@H](C)CN(c2ccc3ncnc(Nc4ccc(Oc5ccc6c(c5)nnn6C)c(C)c4F)c3n2)C1 (single isomer, unassigned) [Compound 336] | ≥ 1 |
| C=CC(=O)N[C@H]1C[C@@H](C)CN(c2ccc3ncnc(Nc4ccc(Oc5ccc6c(c5)nnn6C)c(C)c4F)c3n2)C1 (single isomer, unassigned) [Compound 337] | 0.1 to 0.5 |
| C=CC(=O)N[C@@H]1C[C@@H](C)CN(c2ccc3ncnc(Nc4ccc(Oc5ccc6c(c5)nnn6C)c(C)c4F)c3n2)C1 (single isomer, unassigned) [Compound 338] | 0.1 to 0.5 |
| C=CC(=O)N[C@H]1C[C@H](C)CN(c2ccc3ncnc(Nc4ccc(Oc5ccc6c(c5)nnn6C)c(C)c4F)c3n2)C1 (single isomer, unassigned) [Compound 339] | 0.1 to 0.5 |
| C=CC(=O)N[C@H]1CN(c2ccc3ncnc(Nc4ccc(Oc5ccc6c(c5)nnn6C)c(C)c4F)c3n2)CC[C@@H]1C (single isomer, unassigned) [Compound 346] | 0.1 to 0.5 |
| C=CC(=O)N[C@@H]1CN(c2ccc3ncnc(Nc4ccc(Oc5ccc6c(c5)nnn6C)c(C)c4F)c3n2)CC[C@H]1C (single isomer, unassigned) [Compound 347] | 0.1 to 0.5 |
| C=CC(=O)N1CCN(c2ncc3ncnc(Nc4ccc(Oc5ccc6c(c5)nnn6C)c(C)c4F)c3n2)CC1 [Compound 7, 1-(4-(8-((2-fluoro-3-methyl-4-((1-methyl-1H-benzo[d][1,2,3]triazol-5-yl)oxy)phenyl)amino)pyrimido [5,4-d]pyrimidin-2-y1)piperazin-1-yl)prop-2-en-1-one] | < 0.05 |
| C=CC(=O)N1CCN(c2ncc3ncnc(Nc4ccc(Oc5ccc6c(c5)nnn6C)c(C)c4F)c3n2)CC12CC2 [Compound 8, 1-(7-(8-((2-fluoro-3-methyl-4-((1-methyl-1H-benzo[d][1,2,3]triazol-5-yl)oxy)phenyl)amino)pyrimido [5,4-d]pyrimidin-2-yl)-4,7-diazaspiro[2.5]octan-4-yl)prop-2-en-1-one] | < 0.05 |
| C=CC(=O)N1CCN(c2ncc3ncnc(Nc4ccc(Oc5ccc6c(c5)nnn6C)c(F)c4F)c3n2)CC1 [Compound 10, 1-(4-(8-((2,3-difluoro-4-((1-methyl-1H-benzo[d][1,2,3]triazol-5-yl)oxy)phenyl)amino)pyrimido[5,4-d]pyrimidin-2-yl)piperazin-1-yl)prop-2-en-1-one] | 0.1 to 0.5 |
| C=CC(=O)N1CCC2(CC1)CN(c1ncc3ncnc(Nc4ccc(Oc5ccc6c(c5)nnn6C)c(C)c4)c3n1)C2 [Compound 14, 1-(2-(8-((3-methyl-4-((1-methyl-1H-benzo[d][1,2,3]triazol-5-yl)oxy)phenyl)amino)pyrimido[5,4-d]pyrimidin-2-y1)-2,7-diazaspiro[3.5]nonan-7-yl)prop-2-en-1-one] | ≥ 1 |
| C=CC(=O)N1CC2(C1)CN(c1ncc3ncnc(Nc4ccc(Oc5ccc6c(c5)nnn6C)c(C)c4F)c3n1)C2 [Compound 23, 1-(6-(8-((2-fluoro-3-methyl-4-((1-methyl-1H-benzo[d][1,2,3]triazol-5-yl)oxy)phenyl)amino)pyrimido [5,4-d]pyrimidin-2-yl)-2,6-diazaspiro[3.3]heptan-2-yl)prop-2-en-1-one] | ≥ 1 |
| C=CC(=O)N1CCN(c2ncc3ncnc(Nc4ccc(Oc5ccc6c(c5)nnn6C)c(C)c4)c3n2)C[C@H]1CO [Compound 24, (S)-1-(2-(hydroxymethyl)-4-(8-((3-methyl-4-((1-methyl-1H-benzo[d][1,2,3]triazol-5-yl)oxy)phenyl)amino)pyrimido[5,4-d]pyrimidin-2-yl)piperazin-1-yl)prop-2-en-1-one] | 0.1 to 0.5 |
| C=CC(=O)N1CCN(c2ncc3ncnc(Nc4ccc(Oc5ccc6c(c5)nnn6C)cc4Cl)c3n2)CC1 [Compound 29, 1-(4-(8-((2-chloro-4-((1-methyl-1H-benzo[d][1,2,3]triazol-5-yl)oxy)phenyl)amino)pyrimido[5,4-d]pyrimidin-2-yl)piperazin-1-yl)prop-2-en-1-one] | ≥ 1 |
| C=CC(=O)N1CCN(c2ncc3ncnc(Nc4ccc(Oc5ccc6c(c5)ncn6C(F)F)c(C)c4)c3n2)CC1 [Compound 30, 1-(4-(8-((4-((1-(difluoromethyl)-1H-benzo[d]imidazol-5-yl)oxy)-3-methylphenyl)amino)pyrimido[5,4-d]pyrimidin-2-y1)piperazin-1-yl)prop-2-en-1-one] | 0.05 to 0.1 |
| [2H]C1([2H])N(C(=O)C=C)C([2H])([2H])C([2H])([2H])N(c2ncc3ncnc(Nc4ccc(Oc5ccc6c(c5)nnn6C)c(C)c4)c3n2)C1([2H])[2H] [Compound 36, 1-(4-(8-((3-methyl-4-((1-methyl-1H-benzo[d][1,2,3]triazol-5-yl)oxy)phenyl)amino)pyrimido[5,4-d]pyrimidin-2-yl)piperazin-1-yl-2,2,3,3,5,5,6,6-d8)prop-2-en-1-one] | < 0.05 |
| C=CC(=O)N1CCN(c2ncc3ncnc(Nc4cc(C)c(Oc5cc(F)c6c(c5)ncn6C)cc4OC)c3n2)CC1 [Compound 38, 1-(4-(8-((4-((7-fluoro-1-methyl-1H-benzo[d]imidazol-5-y1)oxy)-2-methoxy-5-methylphenyl)amino)pyrimido[5,4-d]pyrimidin-2-yl)piperazin-1-yl)prop-2-en-1-one 2,2,2-trifluoroacetate] | 0.1 to 0.5 |
| C=CC(=O)N1CCN(c2ncc3ncnc(Nc4cc(C)c(Oc5cc(F)c6c(c5)ncn6C)cc4OC)c3n2)C[C@H]1C [Compound 41, (R)-1-(4-(8-((4-((7-fluoro-1-methyl-1H-benzo[d]imidazol-5-yl)oxy)-2-methoxy-5-methylphenyl)amino)pyrimido[5,4-d]pyrimidin-2-y1)-2-methylpiperazin-1-y1)prop-2-en-1-one] | 0.1 to 0.5 |
| C=CC(=O)N1CCN(c2ncc3ncnc(Nc4ccc(Oc5ccc6c(c5)nnn6C)c(C(F)(F)F)c4)c3n2)CC1 [Compound 43, 1-(4-(8-((4-((1-methyl-1H-benzo[d][1,2,3]triazol-5-yl)oxy)-3-(trifluoromethyl)phenyl)amino)pyrimido[5,4-d]pyrimidin-2-yl)piperazin-1-yl)prop-2-en-1-one] | 0.1 to 0.5 |
| C=CC(=O)N1CCN(c2ncc3ncnc(Nc4ccc(Oc5ccc6c(c5)nnn6C)c(F)c4F)c3n2)CC1 [Compound 44, 1-(4-(8-((2,3-difluoro-4-((1-methyl-1H-benzo[d][1,2,3]triazol-5-yl)oxy)phenyl)amino)pyrimido[5,4-d]pyrimidin-2-yl)piperazin-1-yl)prop-2-en-1-one] | 0.05 to 0.1 |
| C=CC(=O)N1CC2CCC(C1)N2c1ncc2ncnc(Nc3ccc(Oc4ccc5c(c4)nnn5C)c(C)c3)c2n1 [Compound 46, 1-(8-(8-((3-methyl-4-((1-methyl-1H-benzo[d][1,2,3]triazol-5-yl)oxy)phenyl)amino)pyrimido[5,4-d]pyrimidin-2-yl)-3,8-diazabicyclo[3.2.1]octan-3-yl)prop-2-en-1-one] | < 0.05 |
| C=CC(=O)N1C2CCC1CN(c1ncc3ncnc(Nc4ccc(Oc5ccc6c(c5)nnn6C)c(C)c4)c3n1)C2 [Compound 47, 1-(3-(8-((3-methyl-4-((1-methyl-1H-benzo[d][1,2,3]triazol-5-yl)oxy)phenyl)amino)pyrimido[5,4-d]pyrimidin-2-yl)-3,8-diazabicyclo[3.2.1]octan-8-yl)prop-2-en-1-one] | 0.1 to 0.5 |
| C=C(F)C(=O)N1CC2CCC1CN2c1ncc2ncnc(Nc3ccc(Oc4ccc5c(c4)nnn5C)c(C)c3)c2n1 (stereo not drawn) [Compound 50, 2-fluoro-1-(5-(8-((3-methyl-4-((1-methyl-1H-benzo[d][1,2,3]triazol-5-yl)oxy)phenyl)amino)pyrimido[5,4-d]pyrimidin-2-yl)-2,5-diazabicyclo[2.2.2]octan-2-yl)prop-2-en-1-one] | ≥ 1 |

Reference: US20250129078A1, “ERBB2 INHIBITORS” (Cogent Biosciences, Inc., priority 2023, published 2025)
